Results reported in PubChem BioAssay AID743124 (Broad Institute, 2013).
Where “and” joins values, the source holds several entries; their conditions need not be identical. Equal entries are not always repeated. Inconclusive results are not listed. Calls of active or inactive are those of the source.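 The calls were made as follows: active = compounds whose fitted half-maximal concentration is at most twice their own top valid dose, with signal falling; inconclusive = flat curve with 30 to 70% inhibition, or poor fit; inactive = the rest.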

System: not listed separately
Assay: inhibitors of CFW-induced Rlm1 reporter, dose response, S. cerevisiae, lacZ luminescence, calcofluor white, dry powder (AID 743124)
Details: S. cerevisiae Rlm1-lacZ reporter, CFW-induced, luminescence 4 h; at 35 µM (top of the series)
In the case of `Cc1ccc(OCCn2c(C)nc3ccccc32)cc1`, the activity change, negative = inhibition is reported as 13.6% (inactive). With `Cc1ccccc1OCCn1c(=S)[nH]c2ccccc21` the activity change, negative = inhibition was -14.7% (inactive). For `CCOC(=O)c1c(NC(=O)CNCCN(C)C)sc(C)c1-c1ccccc1`, the activity change, negative = inhibition was -8.38% (inactive). For `Cc1ccc(OCCn2cnc3ccccc32)cc1`, the activity change, negative = inhibition was 15.9% (inactive). For `CCOC(=O)c1c(-c2ccc(OC)cc2)csc1NC(=O)CN(C)CC(=O)N(C)C`, the activity change, negative = inhibition was -25% (inactive). For `COC(=O)C1=C(C)N(Cc2ccccc2)C(=S)NC1c1ccc(Br)cc1` (centres undefined), the activity change, negative = inhibition was 9.97% (inactive). In the case of `COC(=O)C1=C(C)N(Cc2ccc(Cl)cc2)C(=S)NC1c1ccc(Br)cc1` (centres undefined), the activity change, negative = inhibition is reported as 0.264% (inactive). For `CCOC(=O)c1c(-c2ccc(F)cc2)csc1NC(=O)CN1CCN(C)CC1`, the activity change, negative = inhibition was -6.7% (inactive). For `O=c1[nH]c2ccccc2n1CCOc1ccccc1`, the activity change, negative = inhibition was 6.62% (inactive) and -10.4% (inactive). For `COC(=O)C1=C(C)N(Cc2ccc(Br)cc2)C(=S)NC1c1ccc(OC)cc1` (centres undefined), the activity change, negative = inhibition was 1.69% (inactive). In the case of `CCOC(=O)c1c(-c2ccc(F)cc2)csc1NC(=O)CN1CCN(CC)CC1`, the activity change, negative = inhibition is reported as -5.43% (inactive). With `CCOC(=O)c1c(-c2ccc(C(C)(C)C)cc2)csc1NC(=O)CN1CCN(CC)CC1` the activity change, negative = inhibition was -28.1% (inactive). With `Cc1ccc2c(c1)[nH]c(=S)n2CCOc1ccccc1` the activity change, negative = inhibition was -5.38% (inactive).

System: S. cerevisiae Rlm1-lacZ reporter, CFW-induced, luminescence 4 h
Assay: as above
Details: not given
Work on `S=c1[nH]c2cccc(Cl)c2n1CCOc1ccccc1` yielded an AC50 of 26.7 µM. For `Fc1cccc2c1[nH]c(=S)n2CCOc1ccccc1`, the AC50 was > 70 µM (inactive). With `COC(=O)C1=C(C)N(Cc2ccc(Br)cc2)C(=S)NC1c1ccc(F)cc1` (centres undefined) the AC50 was > 70 µM (inactive). For `COC(=O)C1=C(C)N(Cc2ccc(F)cc2)C(=S)NC1c1cccc(F)c1` (centres undefined), the AC50 was > 70 µM (inactive). With `CCOC(=O)c1c(-c2ccc(-c3ccccc3)cc2)csc1NC(=O)CNCCN(C)C` the AC50 was > 70 µM (inactive). For `Fc1ccccc1OCCn1c(=S)[nH]c2ccccc21`, the AC50 was > 70 µM (inactive). With `Cc1ccc(C(C)C)c(OCCn2c(=S)[nH]c3ccccc32)c1` the AC50 was > 70 µM (inactive). With `S=c1[nH]c2ccccc2n1CCOc1ccccc1` the AC50 was > 70 µM (inactive). For `Cc1ccc(OCCn2c(SCCO)nc3ccccc32)c(C(C)C)c1`, the AC50 was > 70 µM (inactive). `Cc1ccc(OCCn2c(=S)[nH]c3ccccc32)cc1` gave an AC50 of 33.2 µM. In the case of `CCOC(=O)c1c(NC(=O)CN2CCN(C)CC2)sc(C)c1-c1ccc(C)cc1`, the AC50 is reported as > 70 µM (inactive).
